From patent US20220168392A1 (priority 2019, published 2022)
Square brackets hold non-standard residues; d marks the D form. * marks the point of attachment. 2Nal = N[C@@H](Cc1ccc2ccccc2c1)C(=O)O; Propionyl = CCC(=O)*; Sar = CNCC(=O)O

What was measured:
[1] = tested on: CD2F1 mice exposed to TBI (7 Gy); test: Hematological recovery (peripheral blood counts) after non-lethal 7 Gy TBI; assay type: in vivo, mouse
Procedure: Hematological recovery with RWJ-800088: To study the effects of prophylactic administration of RWJ-800088 on the recovery from hematopoietic injury following TBI, CD2F1 mice (n=10 per group) were treated with either a single dose of RWJ-800088 (0.3 mg/kg) or its vehicle (saline) 24 hours pre-TBI at a non-lethal dose of 7.0 Gy. This dose allows the animals to recover completely from the radiation-induced hematopoietic injury. In addition, a group of sham irradiated mice were given either the drug or saline. Blood collection was performed using a 23 G needle from the submandibular vein after anesthetizing the mice with isoflurane (Hospira Inc., Lake Forest, Ill.) at 2 hours and on days 1, 3, 7, 10, 14, 21, and 30 post-TBI. All mice were allowed to recover fully from anesthesia and monitored closely for any signs of a post-anesthesia reaction or bleeding at the collection site before returned to group housed cages. Approximately 20 μL of blood was collected in EDTA tubes and was continually rotated until CBC/differential analysis was completed using a HESKA Element HT™ 5 Analyzer system (HESKA Corporation, Loveland, Colo.). This CBC/differential analysis included white blood cells (WBC) counts, absolute neutrophil counts (Liem-Moolenaar, Clin Pharmacol Ther. 2008 October; 84(4):481-7), monocytes (MON), lymphocytes (LYM), red blood cells (RBC), hematocrits (HCT), and platelets (PLT) counts.

[2] = tested on: subjects with cancer receiving platinum-based chemotherapy; test: Study NAP1002: cancer patients receiving platinum-based chemotherapy; assay type: in vivo, human
Procedure: In the second randomized, double-blind Phase 1 study (NAP1002), 46 subjects with cancer receiving platinum-based chemotherapy were enrolled into 3 cohorts: 12 subjects received 1.5 μg/kg RWJ-800088, 12 subjects received 2.25 μg/kg, 10 subjects received 3 μg/kg, and 12 subjects received placebo within 2 hours before administration of platinum-based chemotherapy on Day 1 of the first of 2 chemotherapy cycles. There was a 21-day interval between each chemotherapy cycle.

[3] = day 7 post-TBI 7 Gy, 0.3 mg/kg 24 h pre-TBI
[4] = day 10 post-TBI 7 Gy, 0.3 mg/kg 24 h pre-TBI
[5] = day 14 post-TBI 7 Gy, 0.3 mg/kg 24 h pre-TBI

Which results are given for “methoxypolyethyleneglycol20000-propionyl-L-Isoleucyl-L-Glutamyl-Glycyl-L-Prolyl-L-Threonyl-L-Leucyl-L-Arginyl-L-Glutaminyl-L-2-Naphthylalanyl-L-Leucyl-L-Alanyl-L-Alanyl-L-Arginyl-Sarcosyl-Ne-(methoxypolyethyleneglycol20000-propionyl-L-Isoleucyl-L-Glutamyl-Glycyl-L-Prolyl-L-Threonyl-L-Leucyl-L-Arginyl-L-Glutaminyl-L-2-Naphthylalanyl-L-Leucyl-L-Alanyl-L-Alanyl-L-Arginyl-Sarcosyl-)-Lysinamide ({mPEG 20 kDa-Propionyl}-IEGPTLRQ[2Nal]LAAR[Sar]K-NH2; also: dimer: second identical mPEG-propionyl chain on Lys Nε of C-terminal lysinamide) [RWJ-800088]”?
recovery from cytopenia of all blood cell counts vs vehicle control ([1]; 7 Gy, 0.3 mg/kg 24 h pre-TBI): significant; Neutrophil (NEU) counts [1, 3]: 0.31±0.026 cells/μL; white blood cell (WBC) counts [1, 3]: 0.5±0.037 cells/μL; lymphocyte (LYM) vs vehicle-treated group ([1]; day 10 post-TBI 7 Gy): significant (p<0.05) increases; platelet (PLT) count [1, 4]: 1565×10^3±148×10^3 cells/μL; white blood cell (WBC) counts [1, 4]: 1.39±0.1756 cells/μL; RBC counts of irradiated vehicle-treated group compared with irradiated RWJ-800088 treated group ([1]; day 14 post-TBI 7 Gy): same effect was also observed; Neutrophil (NEU) counts [1, 5]: 1.54±0.21 cells/μL; white blood cell (WBC) counts [1, 5]: 2.43±0.32 cells/μL; platelet (PLT) count ([1]; day 14 post-TBI 7 Gy, 0.3 mg/kg 24 h pre-TBI, irradiated RWJ-800088 treated group): 1070×10^3±156×10^3 cells/μL; % HCT of irradiated vehicle-treated group compared with irradiated RWJ-800088 treated group ([1]; day 14 post-TBI 7 Gy, p<0.001): significantly lower; monocyte (MON) counts vs irradiated vehicle-treated group ([1]; days 7, 10 and 14 post-TBI 7 Gy, p<0.001): markedly higher; PLT in non-irradiated groups vs saline ([1]; non-irradiated, days 7 and 10 post-TBI (days 8 and 11 after administration), 0.3 mg/kg): significant (p<0.05) increase in PLT; nadir and peak mean platelet counts vs placebo ([2]; 1.5 μg/kg): similar; day up to which mean platelet counts continued to decline ([2]; 1.5 μg/kg, each cycle): 15 days; platelet nadir and peak platelet counts, fold higher relative to placebo ([2]; 3 μg/kg): approximately 2 fold; day of peak mean platelet counts ([2]; 3.0 μg/kg, both cycles): 15 days; serious adverse event of thrombocythemia (number) ([2]; 1.5, 2.25, and 3 μg/kg): 1; tolerability ([2]; 1.5, 2.25, and 3 μg/kg with platinum-based chemotherapy): well-tolerated; day on which mean platelet counts were lowest ([2]; 2.25 and 3.0 μg/kg, each cycle): 10 days; nadir and peak platelet counts, fold higher than placebo ([2]; 2.25 or 3.0 μg/kg): approximately 2 fold; Maximum Platelet Counts, GMR (Active/Placebo) ([2]; Across cycles, 1.5 μg/kg): 1.0; Maximum Platelet Counts, Geometric Mean ([2]; Across cycles, 1.5 μg/kg): 374760 µL⁻¹; Minimum Platelet Counts, GMR (Active/Placebo) ([2]; Across cycles, 1.5 μg/kg): 0.6; Minimum Platelet Counts, Geometric Mean ([2]; Across cycles, 1.5 μg/kg): 34570 µL⁻¹; Maximum Platelet Counts, GMR (Active/Placebo) ([2]; Across cycles, 2.25 μg/kg): 1.6; Maximum Platelet Counts, Geometric Mean ([2]; Across cycles, 2.25 μg/kg): 574270 µL⁻¹; Minimum Platelet Counts, GMR (Active/Placebo) ([2]; Across cycles, 2.25 μg/kg): 2.7; Minimum Platelet Counts, Geometric Mean ([2]; Across cycles, 2.25 μg/kg): 165790 µL⁻¹; Maximum Platelet Counts, GMR (Active/Placebo) ([2]; Across cycles, 3.0 μg/kg): 1.8; Maximum Platelet Counts, Geometric Mean ([2]; Across cycles, 3.0 μg/kg): 662940 µL⁻¹; Minimum Platelet Counts, GMR (Active/Placebo) ([2]; Across cycles, 3.0 μg/kg): 2.2; Minimum Platelet Counts, Geometric Mean ([2]; Across cycles, 3.0 μg/kg): 134260 µL⁻¹; Maximum Platelet Counts, GMR (Active/Placebo) ([2]; Cycle 1, 1.5 μg/kg): 1.1; Maximum Platelet Counts, Geometric Mean ([2]; Cycle 1, 1.5 μg/kg): 329180 µL⁻¹; Minimum Platelet Counts, GMR (Active/Placebo) ([2]; Cycle 1, 1.5 μg/kg): 0.5; Minimum Platelet Counts, Geometric Mean ([2]; Cycle 1, 1.5 μg/kg): 46800 µL⁻¹; Maximum Platelet Counts, GMR (Active/Placebo) ([2]; Cycle 1, 2.25 μg/kg): 1.9; Maximum Platelet Counts, Geometric Mean ([2]; Cycle 1, 2.25 μg/kg): 564360 µL⁻¹; Minimum Platelet Counts, GMR (Active/Placebo) ([2]; Cycle 1, 2.25 μg/kg): 2.3; Minimum Platelet Counts, Geometric Mean ([2]; Cycle 1, 2.25 μg/kg): 217590 µL⁻¹; Maximum Platelet Counts, GMR (Active/Placebo) ([2]; Cycle 1, 3.0 μg/kg): 2.1; Maximum Platelet Counts, Geometric Mean ([2]; Cycle 1, 3.0 μg/kg): 642690 µL⁻¹; Minimum Platelet Counts, GMR (Active/Placebo) ([2]; Cycle 1, 3.0 μg/kg): 2.0; Minimum Platelet Counts, Geometric Mean ([2]; Cycle 1, 3.0 μg/kg): 188250 µL⁻¹; Maximum Platelet Counts, GMR (Active/Placebo) ([2]; Cycle 2, 1.5 μg/kg): 0.9; Maximum Platelet Counts, Geometric Mean ([2]; Cycle 2, 1.5 μg/kg): 294150 µL⁻¹; Minimum Platelet Counts, GMR (Active/Placebo) ([2]; Cycle 2, 1.5 μg/kg): 0.9; Minimum Platelet Counts, Geometric Mean ([2]; Cycle 2, 1.5 μg/kg): 76170 µL⁻¹; Maximum Platelet Counts, GMR (Active/Placebo) ([2]; Cycle 2, 2.25 μg/kg): 1.3; Maximum Platelet Counts, Geometric Mean ([2]; Cycle 2, 2.25 μg/kg): 401870 µL⁻¹; Minimum Platelet Counts, GMR (Active/Placebo) ([2]; Cycle 2, 2.25 μg/kg): 2.2; Minimum Platelet Counts, Geometric Mean ([2]; Cycle 2, 2.25 μg/kg): 177540 µL⁻¹; Maximum Platelet Counts, GMR (Active/Placebo) ([2]; Cycle 2, 3.0 μg/kg): 1.4; Maximum Platelet Counts, Geometric Mean ([2]; Cycle 2, 3.0 μg/kg): 434100 µL⁻¹; Minimum Platelet Counts, GMR (Active/Placebo) ([2]; Cycle 2, 3.0 μg/kg): 2.2; Minimum Platelet Counts, Geometric Mean ([2]; Cycle 2, 3.0 μg/kg): 179930 µL⁻¹; Change From Baseline in Hemoglobin, Difference of LS Mean (SE) vs Placebo ([2]; Day 42, 1.5 μg/kg): 0.54 g/dL; Change From Baseline in Hemoglobin, LS Mean (SE) ([2]; Day 42, 1.5 μg/kg): −1.63 (0.50) g/dL; Change From Baseline in Hemoglobin, Difference of LS Mean (SE) vs Placebo ([2]; Day 42, 2.25 μg/kg): 0.57 g/dL; Change From Baseline in Hemoglobin, LS Mean (SE) ([2]; Day 42, 2.25 μg/kg): −1.60 (0.42) g/dL; Change From Baseline in Hemoglobin, Difference of LS Mean (SE) vs Placebo ([2]; Day 42, 3.0 μg/kg): 1.00 g/dL; Change From Baseline in Hemoglobin, LS Mean (SE) ([2]; Day 42, 3.0 μg/kg): −1.16 (0.47) g/dL; decrease of mean Hb concentration from baseline ([2]; Day 42, 3.0-μg/kg group): 1.16 g/dL; Change From Baseline in Hemoglobin, Difference of LS Mean (SE) vs Placebo ([2]; Day 63, 1.5 μg/kg): -0.75 g/dL; Change From Baseline in Hemoglobin, LS Mean (SE) ([2]; Day 63, 1.5 μg/kg): −2.98 (0.70) g/dL; Change From Baseline in Hemoglobin, Difference of LS Mean (SE) vs Placebo ([2]; Day 63, 2.25 μg/kg): 0.68 g/dL; Change From Baseline in Hemoglobin, LS Mean (SE) ([2]; Day 63, 2.25 μg/kg): −1.55 (0.61) g/dL; Change From Baseline in Hemoglobin, Difference of LS Mean (SE) vs Placebo ([2]; Day 63, 3.0 μg/kg): 0.79 g/dL; Change From Baseline in Hemoglobin, LS Mean (SE) ([2]; Day 63, 3.0 μg/kg): −1.44 (0.61) g/dL; Change From Baseline in Hemoglobin, Difference of LS Mean (SE) vs Placebo ([2]; Day 84, 1.5 μg/kg): 0.05 g/dL; Change From Baseline in Hemoglobin, LS Mean (SE) ([2]; Day 84, 1.5 μg/kg): −1.88 (0.59) g/dL; Change From Baseline in Hemoglobin, Difference of LS Mean (SE) vs Placebo ([2]; Day 84, 2.25 μg/kg): 0.03 g/dL; Change From Baseline in Hemoglobin, LS Mean (SE) ([2]; Day 84, 2.25 μg/kg): −1.90 (0.55) g/dL; Change From Baseline in Hemoglobin, Difference of LS Mean (SE) vs Placebo ([2]; Day 84, 3.0 μg/kg): 1.13 g/dL; Change From Baseline in Hemoglobin, LS Mean (SE) ([2]; Day 84, 3.0 μg/kg): −0.80 (0.59) g/dL; Effects ([2]; Humans, Phase 1b study, whole wrapped cell: Protection against thrombocytopenia and anemia): Protection against; day of mean peak platelet counts ([2]; lower doses (1.5, 2.25 μg/kg), both cycles): 21 days; transient platelet increase, times the baseline ([2]; two subjects at 3.0 μg/kg, first cycle (stopping criteria)): more than 3 times the baseline
